# Patent US9499550B2 (BRISTOL-MYERS SQUIBB COMPANY, priority 2012, dated 2016)
# Like-named read-outs stand apart in the source and are kept apart here.
# How the values were obtained:
# [1] = tested on: HCV genotype 1a (H77 strain) replicon in HUH-7 cells; assay: HCV replicon luciferase reporter assay, genotype 1a; format: cell-based; settings: Hepatitis C virus, Huh-7, 72 h, HCV genotype 1a replicon luciferase, 3 days incubation
# Method in brief: (§1)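 Replicon inhibition for both genotypes was measured as Renilla luciferase signal (EnduRen, 7.5 μM final, 2 h) after 3-day, 37° C exposure of replicon-bearing HUH-7 cells in 4% FCS DMEM, 0.5% DMSO. The 1b construct carries S1179I; the 1a H77 construct carries P1496L and S2204I. Twenty-point, 3-fold dilutions were fitted four-parametrically for EC50, and CC50 was taken from multiplexed Cell Titer-Blue.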
# [2] = tested on: HCV genotype 1b (Con1) replicon in HUH-7 cells; assay: HCV replicon luciferase reporter assay, genotype 1b; format: cell-based; settings: Hepatitis C virus, Huh-7, 72 h, HCV genotype 1b replicon luciferase, 3 days incubation
# Method in brief: as §1
SMILES,"EC50 ([1]; read-out: LE_1a (EC50, range)) [nM]","EC50 ([2]; read-out: LE_1b (EC50, range)) [nM]",EC50 ([1]; read-out: LE_1a (EC50)) [nM],EC50 ([2]; read-out: LE_1b (EC50)) [nM]
"CCn1nc(O[C@@H]2C[C@H]3C(=O)N[C@]4(C(=O)NS(=O)(=O)C5(C)CC5)C[C@H]4/C=C\CC[C@@H](C)C[C@@H](C)[C@H](NC(=O)c4ccc(N(C)C)cc4)C(=O)N3C2)c2ccccc2c1=O [Compound 5061, (2R,6S,7R,9R,13aS,14aR,16aS,Z)-6-(4-(dimethylamino)benzamido)-2-((3-ethyl-4-oxo-3,4-dihydrophthalazin-1-yl)oxy)-7,9-dimethyl-N-((1-methylcyclopropyl)sulfonyl)-5,16-dioxo-1,2,3,5,6,7,8,9,10,11,13a,14,14a,15,16,16a-hexadecahydrocyclopropa[e]pyrrolo[1,2-a][1,4]diazacyclopentadecine-14a-carboxamide]",4.82 to 103,4.82 to 103,–,–
"CCn1nc(O[C@@H]2C[C@H]3C(=O)N[C@]4(C(=O)NS(=O)(=O)C5(C)CC5)C[C@H]4/C=C\CC[C@H](C)C[C@@H](C)[C@H](NC(=O)C(=O)N(C)C)C(=O)N3C2)c2ccccc2c1=O [Compound 5062, N1-((2R,6S,7R,9S,13aS,14aR,16aS,Z)-2-((3-ethyl-4-oxo-3,4-dihydrophthalazin-1-yl)oxy)-7,9-dimethyl-14a-(((1-methylcyclopropyl)sulfonyl)carbamoyl)-5,16-dioxo-1,2,3,5,6,7,8,9,10,11,13a,14,14a,15,16,16a-hexadecahydrocyclopropa[e]pyrrolo[1,2-a][1,4]diazacyclopentadecin-6-yl)-N2,N2-dimethyloxalamide]",> 87.4,> 87.4,≥ 1000,1000
"CCn1nc(O[C@@H]2C[C@H]3C(=O)N[C@]4(C(=O)NS(=O)(=O)C5(C)CC5)C[C@H]4/C=C\CC[C@@H](C)C[C@@H](C)[C@H](NC(=O)C(=O)N(C)C)C(=O)N3C2)c2ccccc2c1=O [Compound 5063, N1-((2R,6S,7R,9R,13aS,14aR,16aS,Z)-2-((3-ethyl-4-oxo-3,4-dihydrophthalazin-1-yl)oxy)-7,9-dimethyl-14a-(((1-methylcyclopropyl)sulfonyl)carbamoyl)-5,16-dioxo-1,2,3,5,6,7,8,9,10,11,13a,14,14a,15,16,16a-hexadecahydrocyclopropa[e]pyrrolo[1,2-a][1,4]diazacyclopentadecin-6-yl)-N2,N2-dimethyloxalamide]",> 87.4,> 87.4,≥ 1000,479
"CCn1nc(O[C@@H]2C[C@H]3C(=O)N[C@]4(C(=O)NS(=O)(=O)C5(C)CC5)C[C@H]4/C=C\CC[C@H](C)C[C@@H](C)[C@H](NC(=O)OC(C)(C)C)C(=O)N3C2)c2ccccc2c1=O [Compound 5064, tert-butyl ((2R,6S,7R,9S,13aS,14aR,16aS,Z)-2-((3-ethyl-4-oxo-3,4-dihydrophthalazin-1-yl)oxy)-7,9-dimethyl-14a-(((1-methylcyclopropyl)sulfonyl)carbamoyl)-5,16-dioxo-1,2,3,5,6,7,8,9,10,11,13a,14,14a,15,16,16a-hexadecahydrocyclopropa[e]pyrrolo[1,2-a][1,4]diazacyclopentadecin-6-yl)carbamate]",> 87.4,4.82 to 103,–,–
"CCn1nc(O[C@@H]2C[C@H]3C(=O)N[C@]4(C(=O)NS(=O)(=O)C5(C)CC5)C[C@H]4/C=C\CC[C@@H](C)C[C@@H](C)[C@H](NC(=O)OC(C)(C)C)C(=O)N3C2)c2ccccc2c1=O [Compound 5065, tert-butyl ((2R,6S,7R,9R,13aS,14aR,16aS,Z)-2-((3-ethyl-4-oxo-3,4-dihydrophthalazin-1-yl)oxy)-7,9-dimethyl-14a-(((1-methylcyclopropyl)sulfonyl)carbamoyl)-5,16-dioxo-1,2,3,5,6,7,8,9,10,11,13a,14,14a,15,16,16a-hexadecahydrocyclopropa[e]pyrrolo[1,2-a][1,4]diazacyclopentadecin-6-yl)carbamate]",4.82 to 103,< 5.46,–,–
"CCn1nc(O[C@@H]2C[C@H]3C(=O)N[C@]4(C(=O)NS(=O)(=O)C5CC5)C[C@H]4/C=C\CC[C@H](C)C[C@@H](C)[C@H](NC(=O)OC(C)(C)C(F)(F)F)C(=O)N3C2)c2ccccc2c1=O [Compound 5066, 1,1,1-trifluoro-2-methylpropan-2-yl((2R,6S,7R,9S,13aS,14aR,16aS,Z)-14a-((cyclopropylsulfonyl)carbamoyl)-2-((3-ethyl-4-oxo-3,4-dihydrophthalazin-1-yl)oxy)-7,9-dimethyl-5,16-dioxo-1,2,3,5,6,7,8,9,10,11,13a,14,14a,15,16,16a-hexadecahydrocyclopropa[e]pyrrolo[1,2-a][1,4]diazacyclopentadecin-6-yl)carbamate]",> 87.4,> 87.4,–,–
"CCn1nc(O[C@@H]2C[C@H]3C(=O)N[C@]4(C(=O)NS(=O)(=O)C5CC5)C[C@H]4/C=C\CC[C@@H](C)C[C@@H](C)[C@H](NC(=O)OC(C)(C)C(F)(F)F)C(=O)N3C2)c2ccccc2c1=O [Compound 5067, 1,1,1-trifluoro-2-methylpropan-2-yl((2R,6S,7R,9R,13aS,14aR,16aS,Z)-14a-((cyclopropylsulfonyl)carbamoyl)-2-((3-ethyl-4-oxo-3,4-dihydrophthalazin-1-yl)oxy)-7,9-dimethyl-5,16-dioxo-1,2,3,5,6,7,8,9,10,11,13a,14,14a,15,16,16a-hexadecahydrocyclopropa[e]pyrrolo[1,2-a][1,4]diazacyclopentadecin-6-yl)carbamate]",4.82 to 103,4.82 to 103,–,–
[2H]C([2H])([2H])C(OC(=O)N[C@@H]1C(=O)N2C[C@H](Oc3nn(CC)c(=O)c4ccccc34)C[C@H]2C(=O)N[C@]2(C(=O)NS(=O)(=O)C3CC3)C[C@H]2/C=C\CC[C@H](C)C[C@H]1C)(C([2H])([2H])[2H])C(F)(F)F [Compound 5068],> 87.4,> 87.4,–,–
[2H]C([2H])([2H])C(OC(=O)N[C@@H]1C(=O)N2C[C@H](Oc3nn(CC)c(=O)c4ccccc34)C[C@H]2C(=O)N[C@]2(C(=O)NS(=O)(=O)C3CC3)C[C@H]2/C=C\CC[C@@H](C)C[C@H]1C)(C([2H])([2H])[2H])C(F)(F)F [Compound 5069],4.82 to 103,4.82 to 103,14.9,7.21
"CCn1nc(O[C@@H]2C[C@H]3C(=O)N[C@]4(C(=O)NS(=O)(=O)C5CC5)C[C@H]4/C=C\CC[C@@H](C)C[C@@H](C)[C@H](NC(=O)O[C@@H]4C[C@@H]5C[C@@H]5C4)C(=O)N3C2)c2ccccc2c1=O [Compound 5070, (1R,3r,5S)-bicyclo[3.1.0]hexan-3-yl((2R,6S,7R,9R,13aS,14aR,16aS,Z)-14a-((cyclopropylsulfonyl)carbamoyl)-2-((3-ethyl-4-oxo-3,4-dihydrophthalazin-1-yl)oxy)-7,9-dimethyl-5,16-dioxo-1,2,3,5,6,7,8,9,10,11,13a,14,14a,15,16,16a-hexadecahydrocyclopropa[e]pyrrolo[1,2-a][1,4]diazacyclopentadecin-6-yl)carbamate]",4.82 to 103,< 5.46,–,–
"CCn1nc(O[C@@H]2C[C@H]3C(=O)N[C@]4(C(=O)NS(=O)(=O)C5CC5)C[C@H]4/C=C\CC[C@H](C)C[C@@H](C)[C@H](NC(=O)NC(C)(C)C)C(=O)N3C2)c2ccccc2c1=O [Compound 5071, (2R,6S,7R,9S,13aS,14aR,16aS,Z)-6-(3-(tert-butyl)ureido)-N-(cyclopropylsulfonyl)-2-((3-ethyl-4-oxo-3,4-dihydrophthalazin-1-yl)oxy)-7,9-dimethyl-5,16-dioxo-1,2,3,5,6,7,8,9,10,11,13a,14,14a,15,16,16a-hexadecahydrocyclopropa[e]pyrrolo[1,2-a][1,4]diazacyclopentadecine-14a-carboxamide]",> 87.4,> 87.4,≥ 1000,1000
